Assay [1] has as its target T1, Proteinase-activated receptor 2 (Homo sapiens, UniProt P55085).
T1 sequence (P55085 whole entry): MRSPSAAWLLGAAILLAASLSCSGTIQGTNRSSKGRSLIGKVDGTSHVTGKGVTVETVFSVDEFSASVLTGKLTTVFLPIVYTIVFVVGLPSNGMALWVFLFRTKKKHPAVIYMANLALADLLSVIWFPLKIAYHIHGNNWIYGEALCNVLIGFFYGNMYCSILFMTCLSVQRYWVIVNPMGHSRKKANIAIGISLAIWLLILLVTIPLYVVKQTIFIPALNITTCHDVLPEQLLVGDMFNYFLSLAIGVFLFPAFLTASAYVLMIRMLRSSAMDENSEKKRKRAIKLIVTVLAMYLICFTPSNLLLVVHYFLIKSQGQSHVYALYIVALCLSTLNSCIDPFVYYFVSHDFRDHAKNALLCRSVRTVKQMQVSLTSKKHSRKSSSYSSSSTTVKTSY
As to the kind of experiment: Antagonist activity at PAR2 in human HT-29 cells assessed as inhibition of agonist-induced calcium mobilization. The class given is functional, cell-based.

In assay [2] the target is T1, Proteinase-activated receptor 2. Put plainly: Antagonist activity at PAR2 in human HCT15 cells assessed as inhibition of SLIGKV-NH2-induced intracellular calcium release. In kind it is functional, cell-based, HCT-15.
Assay [3] shares this target. As to the kind of experiment: Antagonist activity at PAR2 in human HT-29 cells assessed as inhibition of trypsin-induced intracellular calcium release. In kind it is functional, cell-based.
The target is the same in assay [4]. As to the kind of experiment: Antagonist activity at PAR2 in human HT-29 cells assessed as inhibition of 2f-LIGRLO-NH2-induced intracellular calcium release. In kind it is functional, cell-based.
For assay [5] the target is unchanged. Put plainly: Displacement of [3H]2-furoyl-LIGRL-NH2 from human PAR2 expressed in human NCTC-2544 cells by scintillation counting analysis. The class given is cell-based.
For assay [6] the target is unchanged. As to the kind of experiment: Antagonist activity at human PAR2 expressed in human NCTC-2544 cells assessed as inhibition of SLIGKV-NH2-induced NFkappaB activation preincubated for 15 to 30 mins followed by SLIGKV-NH2 addition measured after 6 hrs by luciferase reporter gene assay. The class given is cell-based.
Assay [7] has the same target. As to the kind of experiment: Agonist activity at human PAR2 expressed in HEK293T cells assessed as stimulation of phosphatidylinositol hydrolysis after 45 mins by scintillation counting analysis. The class given is functional, cell-based, HEK-293T.
Assay [8] has the same target. Put plainly: Agonist activity at human PAR2 expressed in HEK293T cells assessed as increase in intracellular calcium level by bioluminescence assay. The class given is functional, cell-based, HEK-293T.
Assay [9] has the same target. As to the kind of experiment: Displacement of [3H]-2-furoyl-LIGRL-NH2 from human PAR2 expressed in human NCTC-2544 cells after 60 mins by scintillation counting analysis. The class given is cell-based.
Assay [10] shares this target. As to the kind of experiment: Agonist activity at PAR2 in human HT-29 cells assessed as increase in intracellular calcium release. The class given is functional, cell-based.
Assay [11] addresses T2, Proteinase-activated receptor 2 (Rattus norvegicus, UniProt Q63645).
T2 sequence (Q63645 whole entry): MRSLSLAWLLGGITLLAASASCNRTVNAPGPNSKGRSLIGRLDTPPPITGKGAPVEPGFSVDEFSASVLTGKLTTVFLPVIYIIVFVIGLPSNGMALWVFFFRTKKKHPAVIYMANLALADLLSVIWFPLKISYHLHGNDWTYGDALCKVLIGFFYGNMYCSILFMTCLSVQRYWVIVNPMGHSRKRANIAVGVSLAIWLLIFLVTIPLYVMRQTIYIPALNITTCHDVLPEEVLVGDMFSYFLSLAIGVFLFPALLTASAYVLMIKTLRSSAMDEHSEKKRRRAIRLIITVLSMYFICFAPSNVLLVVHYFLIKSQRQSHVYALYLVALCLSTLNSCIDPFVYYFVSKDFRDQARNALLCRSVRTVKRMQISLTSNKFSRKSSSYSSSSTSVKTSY
Put plainly: Antagonist activity at rat PAR2 expressed in rat KNRK cells assessed as inhibition of trypsin-induced receptor activation. The class given is cell-based.

The target of assay [12] is T1, Proteinase-activated receptor 2. Put plainly: Antagonist activity at PAR2 in human HaCaT cells assessed as inhibition of SLIGKV-NH2-induced intracellular calcium release. In kind it is functional, cell-based.
Assay [13] shares this target. As to the kind of experiment: Agonist activity at PAR2 (unknown origin) by cell-based assay.
The target in assay [14] is Proteinase-activated receptor 2 (Homo sapiens) (UniProt P55085). As to the kind of experiment: Antagonist activity at PAR2 in human SW620 cells assessed as inhibition of SLIGRL-NH2-induced intracellular calcium release at 6 uM relative to control. The class given is functional, cell-based. Set-up: scale not given: the % may be the effect or the level left. The note with it: SW-620.

Assay [15] concerns the target T3, Proteinase-activated receptor 1 (Homo sapiens, UniProt P25116).
T3 sequence (P25116 whole entry): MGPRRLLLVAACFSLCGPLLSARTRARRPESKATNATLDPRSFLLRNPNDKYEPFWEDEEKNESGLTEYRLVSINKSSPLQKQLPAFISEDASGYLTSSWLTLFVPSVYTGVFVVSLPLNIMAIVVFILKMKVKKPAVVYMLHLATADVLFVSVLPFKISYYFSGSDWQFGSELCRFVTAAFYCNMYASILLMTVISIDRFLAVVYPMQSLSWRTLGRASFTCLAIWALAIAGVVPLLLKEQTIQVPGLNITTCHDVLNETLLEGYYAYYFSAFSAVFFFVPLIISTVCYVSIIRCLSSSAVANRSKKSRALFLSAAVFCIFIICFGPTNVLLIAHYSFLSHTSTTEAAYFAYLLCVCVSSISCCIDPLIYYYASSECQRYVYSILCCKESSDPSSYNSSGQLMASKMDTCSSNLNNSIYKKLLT
As to the kind of experiment: Agonist activity at human PAR1 expressed in African green monkey COS7 cells assessed as stimulation of inositol triphosphate production. In kind it is functional, cell-based, COS-7.

Assay [16] deals with T1, Proteinase-activated receptor 2. Put plainly: Agonist activity at PAR2 in human 16HBE14o- cells assessed as increase in intracellular calcium level. In kind it is functional, cell-based.
Assay [17] shares this target. Put plainly: Agonist activity at PAR2 in human 16HBE14o- cells assessed as increase in MAPK level. In kind it is cell-based.
The target is the same in assay [18]. Put plainly: Antagonist activity at human PAR2 expressed in human A549 cells coexpressing TACR1 assessed as inhibition of substance P-induced IL-8 production by ELISA. The class given is cell-based.
Assay [19] has the same target. Put plainly: Antagonist activity at human PAR2 expressed in human A549 cells assessed as inhibition of 2f-LIGRLO-NH2-induced NFkappaB activation by luciferase reporter gene assay. In kind it is cell-based.

*1 amine or outer side, *2 acyl side, *3 side chain or, on linkers, in order; H or OH if unused. Where a SMILES comes first, the peptide text is derived from it. [ ]: non-standard residue; d: D form. The star is where a group is joined. X1 = CCCCCCCCCCCCCCCC(=O)OCCOCCOCCNCCC[C@H](N[*:1])C(=O)[*:2]; Phe(4-NO2) = N[C@@H](Cc1ccc([N+](=O)[O-])cc1)C(=O)O; 4Thiazolecarbonyl(2-NH2) = Nc1nc(C(=O)*)cs1; Palmitoyl = CCCCCCCCCCCCCCCC(=O)*; Orn = NCCC[C@H](N)C(=O)O; 2Furoyl = O=C(c1ccco1)*

As to `CC[C@H](C)[C@H](NC(=O)[C@H](CC1CCCCC1)NC(=O)c1ccno1)C(=O)N1CCC2(CCc3ccccc32)CC1`, in assay [1], the IC50 was found to be 2000 nM.

With `CC[C@H](C)[C@H](NC(=O)[C@H](CC1CCCCC1)NC(=O)c1ccno1)C(=O)N1CCC2(C=Cc3ccccc32)CC1`, in assay [1], the 50% inhibitory concentration (IC50) is 1000 nM.

As to `COc1ccc(Br)c(C(=O)Nn2c(-c3ccc(F)cc3)nc3ccccc3c2=O)c1`, the concentration for half-maximal inhibition (IC50) in assay [2] was 34000 nM.

Turning to `Cc1cccc(Cn2c(C)nc3cc(C(=O)N4CCCCC4)ccc32)c1`, the concentration for half-maximal inhibition (IC50) in assay [2] is 243000 nM.

In the case of `CC[C@H](C)[C@H](NC(=O)[C@H](CC1CCCCC1)NC(=O)c1ccno1)C(=O)NCc1ccccc1OC`, the IC50 in assay [3] stood at 1900 nM; in assay [4], 400 nM.

With `NCCCC[C@H](NC(=O)CNC(=O)Nc1ccc2c(c1)c(CN1CCCC1)cn2Cc1c(Cl)cccc1Cl)C(=O)N[C@@H](Cc1ccccc1)C(=O)NC(c1ccccc1)c1ccccc1`, the inhibition constant Ki in assay [5] is 600 nM. The IC50 in assay [6] is 1100 nM.

Turning to `C/C(=N\NC(=O)[C@@H]1C(=O)NC[C@H]1c1ccccc1)c1cccc(Br)c1`, the EC50 in [7] and in assay [8] was 30 nM throughout.

In the case of `CC[C@H](C)[C@H](NC(=O)[C@H](CC(C)C)NC(=O)c1ccco1)C(=O)NCC(=O)N[C@@H](CCCN=C(N)N)C(=O)N[C@@H](CC(C)C)C(=O)N[C@@H](CCCN)C(N)=O` (2Furoyl-LIGRL[Orn]-NH2), the concentration for half-maximal inhibition (IC50) in assay [9] was 100 nM. Also, the concentration for a half-maximal effect (EC50) in [10] worked out at 200 nM.

Regarding `CC[C@H](C)[C@H](NC(=O)[C@H](Cc1ccc([N+](=O)[O-])cc1)NC(=O)[C@H](CCCN=C(N)N)NC(=O)CNC(=O)[C@@H](NC(=O)[C@H](CC(C)C)NC(=O)c1ccco1)[C@@H](C)CC)C(N)=O` (2Furoyl-LIGR[Phe(4-NO2)]I-NH2), the 50% effective concentration (EC50) in [10] was determined as 200 nM.

Turning to `CC(C)C[C@H](NC(=O)[C@H](CC(C)C)NC(=O)[C@H](CO)NC(=O)[C@@H](N)Cc1ccccc1)C(=O)N[C@@H](CCCNC(=N)N)C(=O)N[C@@H](Cc1ccc(O)cc1)C(N)=O` (H-FSLLRY-NH2), in assay [11], the IC50 was determined as 50000 nM.

With `CC[C@H](C)[C@H](NC(=O)[C@H](CO)NC(=O)[C@@H](N)CC(C)C)C(=O)NCC(=O)N[C@@H](CCCNC(=N)N)C(=O)N[C@@H](CC(C)C)C(N)=O` (H-LSIGRL-NH2), the 50% inhibitory concentration (IC50) in [11] was 50000 nM.

As for `CC(C)C[C@H](NC(=O)[C@H](CC(C)C)NC(=O)[C@H](CO)NC(=O)[C@H](Cc1ccccc1)NC(=O)[C@H](CCCNC(=N)N)NC(=O)[C@@H](N)CCCNC(=N)N)C(=O)N[C@@H](CCCNC(=N)N)C(=O)N[C@@H](Cc1ccc(O)cc1)C(N)=O` (H-RRFSLLRY-NH2), the IC50 in assay [12] amounted to 700000 nM.

In turn, `CC[C@H](C)[C@H](NC(=O)[C@H](CC(C)C)NC(=O)[C@@H](N)CO)C(=O)NCC(=O)N[C@@H](CCCNC(=N)N)C(=O)N[C@@H](CC(C)C)C(N)=O` (H-SLIGRL-NH2) gave an EC50 in assay [13] of 5000 nM.

With `CCCCCCCCCCCCCCCC(=O)NCC(=O)N[C@@H](CC(=O)O)C(=O)N[C@@H](CCC(=O)O)C(=O)N[C@@H](CC(N)=O)C(=O)N[C@@H](CO)C(=O)N[C@@H](CCC(=O)O)C(=O)N[C@@H](CCCCN)C(=O)N[C@@H](CCCCN)C(=O)N[C@@H](CCCNC(=N)N)C(=O)N[C@@H](CCCCN)C(=O)N[C@@H](CCC(N)=O)C(=O)N[C@@H](C)C(=O)N[C@H](C(=O)N[C@@H](CCCCN)C(=O)O)[C@@H](C)CC` (Palmitoyl-GDENSEKKRKQAIK-OH), the Activity in assay [14] turned out to be 53%.

In the case of `CCCCCCCCCCCCCCCC(=O)N[C@@H](CCCN=C(N)N)C(=O)N[C@@H](CS)C(=O)N[C@@H](CC(C)C)C(=O)N[C@@H](CO)C(=O)N[C@@H](CO)C(=O)N[C@@H](CO)C(=O)N[C@@H](C)C(=O)N[C@H](C(=O)N[C@@H](C)C(=O)N[C@@H](CC(N)=O)C(=O)N[C@@H](CCCN=C(N)N)C(=O)N[C@@H](CO)C(=O)N[C@@H](CCCCN)C(=O)N[C@@H](CCCCN)C(=O)N[C@@H](CO)C(=O)N[C@@H](CCCN=C(N)N)C(=O)N[C@@H](CC(C)C)C(=O)N[C@@H](Cc1ccccc1)C(=O)O)C(C)C` (Palmitoyl-RCLSSSAVANRSKKSRLF-OH), the EC50 in [15] was determined as 180 nM.

Turning to `CCCCCCCCCCCCCCCC(=O)OCCOCCOCCNCCC[C@H](NC(=O)[C@H](CC(C)C)NC(=O)[C@H](CCCNC(=N)N)NC(=O)CNC(=O)[C@@H](NC(=O)[C@H](CC(C)C)NC(=O)c1csc(N)n1)[C@@H](C)CC)C(N)=O` ({4Thiazolecarbonyl(2-NH2)}-LIGRL[X1]-NH2), the results for the EC50 in assay [16] and in [17] were 4 nM and 10 nM, respectively.

Turning to `CC(C)[C@]12O[C@H]1[C@@H]1O[C@]13[C@]1(O[C@H]1C[C@H]1C4=C(CC[C@@]13C)C(=O)OC4)[C@@H]2O` [TRIPTOLIDE], the concentration for half-maximal inhibition (IC50) in [18] amounted to 23 nM; in assay [19], 14 nM.

For the origin of these results see ChEMBL document CHEMBL2429713, “Toward drugs for protease-activated receptor 2 (PAR2)” (J Med Chem, 2013).
